{
  "source": "patent US20100311770A1",
  "about": "“COMPOUND COMBINATIONS FOR INHIBITING CELL DIVISION AND METHODS FOR THEIR IDENTIFICATION AND USE” (President and Fellows of Harvard College, priority 2005, published 2010)",
  "key": {"E. coli strain DRC39": {"system": "E. coli strain DRC39", "experiment": "combination anti-bacterial treatment at sub-MIC concentrations, cell growth by turbidity or OD600", "type": "cell-based", "conditions": "for amount of growth relative to absence of compound / growth inhibition: single compound", "protocol": "Cell growth was assessed by visual inspection of cells incubated in culture tubes in this experiment and in the second, third, and fourth experiments described in this Example. In the fifth experiment growth was measured by reading optical density (OD600) using a multiwell plate reader. Cells were inoculated at a low concentration (1-2×10^5 cells/ml), such that the medium appeared clear."}, "[1]": {"system": "E. coli DRC39 (ΔacrAB::kan)", "type": "cell-based", "conditions": "for MIC: E. coli DRC39 (ΔacrAB::kan), MIC99"}, "[2]": {"molecular_target": "E. coli FtsZ (FtsZEc) GTPase (Escherichia coli, UniProt P0A9A6)", "sequence (P0A9A6 whole entry)": "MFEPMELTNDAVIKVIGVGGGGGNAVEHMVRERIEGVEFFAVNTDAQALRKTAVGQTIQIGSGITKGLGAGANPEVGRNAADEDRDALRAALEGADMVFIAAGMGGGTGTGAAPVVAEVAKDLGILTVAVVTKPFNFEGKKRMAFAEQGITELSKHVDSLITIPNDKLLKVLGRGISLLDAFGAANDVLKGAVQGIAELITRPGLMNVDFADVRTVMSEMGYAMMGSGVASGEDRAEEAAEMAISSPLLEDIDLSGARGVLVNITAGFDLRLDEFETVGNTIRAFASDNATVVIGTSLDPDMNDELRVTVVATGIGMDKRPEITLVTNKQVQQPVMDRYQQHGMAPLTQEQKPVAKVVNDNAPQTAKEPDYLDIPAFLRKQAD", "conditions": "read-out: IC50 FtsZEc GTPase; 5 min preincubation at 30° C., 1 mM GTP; average of three determinations", "protocol": "FtsZ was preincubated with varying concentrations of compounds or with 3% DMSO in buffer E for 5 min at 30° C., before adding 1 mM GTP to the reactions. Reaction kinetics were followed by measuring inorganic phosphate released upon GTP hydrolysis. The IC50 values were extrapolated from log dose-response curves and are averages from three independent determinations."}, "[3]": {"molecular_target": "M. tuberculosis FtzZ (FtsZMt) GTPase (Mycobacterium tuberculosis, UniProt P9WN95)", "sequence (P9WN95 whole entry)": "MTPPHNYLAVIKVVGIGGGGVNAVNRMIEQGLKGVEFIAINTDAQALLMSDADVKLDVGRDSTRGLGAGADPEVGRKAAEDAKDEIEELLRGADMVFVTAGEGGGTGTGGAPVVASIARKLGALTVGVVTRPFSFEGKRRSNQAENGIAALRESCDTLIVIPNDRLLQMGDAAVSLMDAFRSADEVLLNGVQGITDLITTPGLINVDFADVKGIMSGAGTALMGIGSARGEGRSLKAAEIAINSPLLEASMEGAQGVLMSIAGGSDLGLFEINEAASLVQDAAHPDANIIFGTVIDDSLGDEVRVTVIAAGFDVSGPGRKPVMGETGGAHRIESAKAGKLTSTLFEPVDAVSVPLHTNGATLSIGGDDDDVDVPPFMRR", "experiment": "malachite green-phosphomolybdate assay of FtsZ GTPase activity", "type": "biochemical", "conditions": "5 min preincubation at 30° C., 1 mM GTP; average of three determinations"}, "[4]": {"system": "FtsZ ring assembly in E. coli DRC39 cells", "type": "cell-based"}, "[5]": {"system": "E. coli DRC40 (DRC39 ftsZ84)", "experiment": "MIC / growth and phenotype, broth culture", "type": "cell-based"}, "[6]": {"system": "E. coli MC1000 (wild-type)", "experiment": "MIC, standard broth dilution", "conditions": "MIC99"}, "Vibrio cholerae": {"system": "Vibrio cholerae", "experiment": "MIC, standard broth dilution"}, "Bacillus subtilis": {"system": "Bacillus subtilis", "experiment": "MIC / killing, broth culture"}, "E. coli DRC40/pBR-ftsZ+": {"system": "E. coli DRC40/pBR-ftsZ+", "type": "cell-based"}, "Staphylococcus aureus": {"system": "Staphylococcus aureus", "experiment": "MIC, standard broth dilution"}, "Clostridium perfringens": {"system": "Clostridium perfringens", "type": "cell-based"}, "[7]": {"system": "E. coli DRC42 (DRC39 recA::cat)", "experiment": "MIC, standard broth dilution"}, "[8]": {"system": "gram-negative and gram-positive bacteria", "experiment": "MIC against a variety of bacteria (FIG. 19)", "type": "cell-based", "protocol": "FIG. 19 is a table illustrating the minimum inhibitory concentrations of FtsZ GTPase inhibitory compounds identified in vitro. The compounds were tested against a variety of gram-negative and gram-positive bacteria.\nThe minimum inhibitory concentrations for some of the identified compounds against various bacterial species and strains were evaluated and results are shown herein (see, e.g., FIG. 19 for MIC values of compounds identified using in vitro assays, and see Table 3 for MIC values for compound 26E-10)."}, "[9]": {"conditions": "C. perfringens, 80 μM, anaerobic conditions"}},
  "note": "pIC50: −log10 of the molar value. “Also recorded” adds a separate entry of the source.",
  "data": [
    {"compound": "CCN1C(=Cc2ccc3c4ccccc4ccc3[n+]2CC)C=Cc2ccccc21.Cc1ccc(S(=O)(=O)[O-])cc1", "note": "[7N-12]", "values": [
      {"measurement": "amount of growth relative to absence of compound", "setting": "E. coli strain DRC39; 0.3 μM", "result": 98, "unit": "%"},
      {"measurement": "growth inhibition", "setting": "E. coli strain DRC39; 0.3 μM", "result": 2, "unit": "%"},
      {"measurement": "MIC", "setting": "[1]", "result": 1.25, "unit": "µM"}
    ]},
    {"compound": "CCN(CC)CCNc1nc(C=Cc2ccc(Cl)cc2)nc2cc3ccccc3cc12", "note": "[16L-09]", "values": [
      {"measurement": "reduction in MIC when administered in combination", "setting": "E. coli strain DRC39; in combination with 26E-10 at sub-MIC concentrations", "result": 4, "unit": "fold"},
      {"measurement": "pIC50", "setting": "[2]", "result": 4.82},
      {"measurement": "MIC", "setting": "[1]", "result": 10, "unit": "µM"},
      {"measurement": "pIC50", "setting": "[3]", "result": 4.30}
    ]},
    {"compound": "Nc1c(C=Cc2cc3cc(C4=NCCN4)ccc3o2)[nH]c2cc(C3=NCCN3)ccc12", "note": "[58P-18]", "values": [
      {"measurement": "pIC50", "setting": "[2]", "result": 5.40},
      {"measurement": "MIC", "setting": "[1]", "result": 80, "unit": "µM"},
      {"measurement": "pIC50", "setting": "[3]", "result": 4.52},
      {"measurement": "Z-ring assembly", "setting": "[4]; 40 μM", "result": "none of the treated cells appear to contain a medial FtsZ ring"},
      {"measurement": "time until cells start elongating", "setting": "[4]; 40 μM", "result": "≤ 60", "unit": "min"}
    ]},
    {"compound": "CC[n+]1ccc(/C=C/N(C)c2ccccc2)c2ccccc21.[I-]", "note": "[26E-10]", "values": [
      {"measurement": "growth", "setting": "[5]; DRC40/pBR322, 5 μM compound, 30° C.", "result": "absolutely no growth"},
      {"measurement": "phenotype at MIC", "setting": "[5]; E. coli DRC40", "result": "filaments"},
      {"measurement": "MIC", "setting": "[5]; E. coli DRC40 (ftsZ84), 30° C., MIC99", "result": 2.5, "unit": "µM"},
      {"measurement": "MIC", "setting": "[6]", "result": ">40", "unit": "µM"},
      {"measurement": "amount of growth relative to absence of compound", "setting": "E. coli strain DRC39; 5 μM", "result": 41, "unit": "%"},
      {"measurement": "growth inhibition", "setting": "E. coli strain DRC39; 5 μM", "result": 59, "unit": "%"},
      {"measurement": "MIC", "setting": "Vibrio cholerae", "result": 40, "unit": "µM"},
      {"measurement": "killing of B. subtilis", "setting": "Bacillus subtilis", "result": "efficiently killed"},
      {"measurement": "MIC", "setting": "Bacillus subtilis; Bacillus subtilis", "result": 40, "unit": "µM"},
      {"measurement": "cell morphology and density", "setting": "[1]; DRC39, 5 μM compound, 30° C.", "result": "mixture of filaments of varying lengths and short cells present at a low density"},
      {"measurement": "phenotype at MIC", "setting": "[1]; E. coli DRC39", "result": "filaments"},
      {"measurement": "MIC", "setting": "[1]", "result": 10, "unit": "µM"},
      {"measurement": "cell density and filamentation", "setting": "E. coli DRC40/pBR-ftsZ+; DRC40/pBR-ftsZ+, 5 μM compound, versus DRC40/pBR322", "result": "higher cell density and less pronounced filamentation"},
      {"measurement": "MIC", "setting": "E. coli DRC40/pBR-ftsZ+; DRC40 with wild-type ftsZ in trans (pBR-ftsZ+)", "result": 10, "unit": "µM"},
      {"measurement": "MIC", "setting": "Staphylococcus aureus", "result": 20, "unit": "µM"},
      {"measurement": "effect on cell growth", "setting": "Clostridium perfringens; [9]", "result": "without any overt effect on cell growth"},
      {"measurement": "phenotype", "setting": "Clostridium perfringens; [9]", "result": "filamentation phenotype; also recorded: filaments"},
      {"measurement": "MIC", "setting": "Clostridium perfringens; Clostridium perfringens", "result": "> 80", "unit": "µM"},
      {"measurement": "DNA replication / chromosome segregation (DAPI staining of nucleoids)", "setting": "[4]; 10 μM", "result": "does not affect DNA replication or chromosome segregation"},
      {"measurement": "Z-rings in elongated cells", "setting": "[4]; 10 μM (MIC), within 60 min", "result": "markedly reduced in number and diminished in intensity"},
      {"measurement": "Z-rings", "setting": "[4]; 10 μM, after 90 min treatment", "result": "most of the cells were devoid of distinct Z-rings"},
      {"measurement": "cell length (filamentation)", "setting": "[4]; 10 μM, within 60 min of treatment", "result": "~4", "unit": "×"},
      {"measurement": "MIC", "setting": "[7]", "result": 10, "unit": "µM"}
    ]},
    {"compound": "Oc1ccc(Cl)cc1Cc1cc(Cl)cc(Cc2cc(Cl)ccc2O)c1O", "note": "[27D-12]", "values": [
      {"measurement": "activity against gram negative bacteria", "setting": "[8]", "result": "kills gram negative species"},
      {"measurement": "activity against gram positive bacteria", "setting": "[8]", "result": "effective against gram positive bacteria at very low concentrations"},
      {"measurement": "pIC50", "setting": "[2]", "result": 5.30},
      {"measurement": "MIC", "setting": "[1]", "result": 20, "unit": "µM"},
      {"measurement": "pIC50", "setting": "[3]", "result": 4.26}
    ]}
  ]
}
